Assay results published in patent publication EP4692079A1, “CYP11A1 INHIBITOR AND USE THEREOF” (priority 2023, dated 2024).
Read-outs that look alike come from different tables or passages of the source.

Tests used:
[1] = system: testosterone level in NCI-H295R cells; assay: cells; assay type: cell-based; details: for inhibition at 0.1 µM / inhibition at 1 µM / IC50: Homo sapiens, NCI-H295R, 72 h; for IC50: read-out: Testosterone level in H295R (Elisa) IC50 nM
Description: The purpose of the experimental study was intended to detect the testosterone level in the NCI-H295R cells by adopting the Enzyme linked immunosorbent assay (ELISA), so as to evaluate the inhibitory effects of the compounds on the testosterone level in the NCI-H295R cells.
The H295R cells were purchased from ATCC, the cell complete medium contained DMEM: F12+ 10% FBS +0.00625 mg/ml insulin +0.00625 mg/ml transferrin+6.25 ng/ml selenium +1.25 mg/ml BSA+0.00535 mg/ml linoleic acid, and the cells were cultured in a 37°C, 5% CO2 incubator. The cells in the exponential growth phase were collected, and cultured in a cytokine-free medium (phenol red 1640-free +1% PS+10% css FBS+1.25 mg/ml BSA +0.00625 mg/ml insulin + 0.00625 mg/ml transferrin+6.25 ng/ml selenium+0.00535 mg/ml linoleic acid) for three days. The cells in the exponential growth phase were collected on the third day. The cell suspension was adjusted with a cytokine-free medium to a corresponding concentration and plated at 60000 cells/well, with the volume being 90 µL/well. Subsequently, 10 µL of the compounds at different concentrations was added and the plate was incubated in a CO2 incubator for three days. After the incubation was completed, according to the operation instructions for testosterone Elisa kit (Beyotime, PT872), 50 µL of the cell culture supernatant was collected from each well and centrifuged at 500 g for 5 min at room temperature and then the resulting supernatant was collected. The samples were added to the corresponding wells at 25 µl/well, and then formulated horseradish peroxidase labelled testosterone was added at 75 µl/well. The mixture was fully mixed for 10 seconds. The reaction wells were sealed with a plate-sealing film (white) and the mixture was incubated at room temperature in the dark for 120 min. The plate was washed three times with a volume of 300 µl per well, and then placed onto thick absorbent paper and dried. Chromogenic reagent TMB solution was added at 100 µl/well. The reaction wells were sealed with a plate-sealing film (white) and the mixture was incubated at room temperature in the dark for 15-20 min. Subsequently, a termination solution was added at 50 µl/well, and after the mixture was fully mixed, the absorbance value OD450 was immediately measured. The absorbance readings were processed using Graphpad Prim 8.0 software and S-shaped concentration curves were plotted and the IC50 values were calculated using a four-parameter non-linear regression model.

[2] = Pharmacokinetic test in rats; assay type: in vivo; details: rat, male SD rats, plasma; for Vd: read-out: Vdss
Description: 3.1 Experimental animals: Male SD rats (about 220 g, 6-8 weeks old, 6 rats/compound) were purchased from Chengdu Dossy Experimental Animals Co., Ltd.
3.2 Experimental design: On the day of the experiment, the SD rats were randomly grouped by body weight. […] Table 4 Administration information
Before and after the administration, 0.1 ml of blood was taken from the orbit of the animals under isoflurane anaesthesia and placed in an EDTAK2 centrifuge tube. The blood was centrifuged at 5000 rpm and 4°C for 10 min to collect plasma. […] Before analysis and detection, all samples were stored at -80°C. Table 5 Pharmacokinetic parameters of test compounds in plasma of rats

[3] = read-out: Testosterone level in H295R (Elisa) inh.% 100 nM, 100 nM compound, NCI-H295R cells, three days incubation
[4] = read-out: Testosterone level in H295R (Elisa) inh.% 1000 nM, 1000 nM compound, NCI-H295R cells, three days incubation
[5] = read-out: Testosterone level in H295R (Elisa) inh.% 100 nM
[6] = read-out: Testosterone level in H295R (Elisa) inh.% 1000 nM
[7] = po, intragastric administration (10 mg/kg)
[8] = intravenous administration (2.5 mg/kg)

SMILES | inhibition at 0.1 µM [1, 3] [%] | inhibition at 1 µM [1, 4] [%] | further results
CS(=O)(=O)N1CC(OC(=O)N2CC(COc3coc(CN4Cc5ccc(C(F)(F)F)cc5C4)cc3=O)C2)C1 [Compound 60] | 57.7 | 78.5 | 
CS(=O)(=O)N1CCC2(CC1)CC2C(=O)N1CCC(COc2coc(CN3Cc4ccc(C(F)(F)F)cc4C3)cc2=O)CC1 (single isomer, unassigned) [Compound 70] |  |  | Testosterone level in H295R (Elisa) inh.% 100 nM ([1]; 100 nM compound, NCI-H295R cells, three days incubation): 60%; Testosterone level in H295R (Elisa) inh.% 1000 nM ([1]; 1000 nM compound, NCI-H295R cells, three days incubation): 83%
CC(F)(F)C(=O)N[C@H]1CC[C@H](/C=C/c2coc(CN3Cc4ccc(C(F)(F)F)cc4C3)cc2=O)CC1 [Compound 108] | 75 | 84 | 
O=C(N[C@H]1CC[C@H](CCc2coc(CN3Cc4ccc(C(F)(F)F)cc4C3)cc2=O)CC1)[C@H]1CC1(F)F [Compound 113] | 76 | 77 | 
O=c1cc(CN2Cc3ccc(C(F)(F)F)cc3C2)occ1/C=C/[C@H]1CC[C@H](NC(=O)[C@H]2C[C@@H](F)C2)CC1 [Compound 100] |  |  | inhibition at 0.1 µM [1, 5]: 70%; inhibition at 1 µM [1, 6]: 85%; AUC(0-t) [2, 7]: 17500 ng·h/mL; half-life [2, 7]: 2.29 h; AUC(0-t) [2, 8]: 4660 ng·h/mL; clearance [2, 8]: 8.86 mL/min/kg; half-life [2, 8]: 1.8 h; Vd [2, 8]: 1.29 L/kg
CS(=O)(=O)N[C@H]1C[C@H](C(=O)N2CCC(COc3coc(CN4Cc5ccc(C(F)(F)F)cc5C4)cc3=O)CC2)C1 [Compound 72] | 58 | 68 | 
CS(=O)(=O)N1CCC2(CC1)CC(C(=O)N1CCC(COc3coc(CN4Cc5ccc(C(F)(F)F)cc5C4)cc3=O)CC1)C2 [Compound 75] | 69 | 78 | 
O=C(O[C@H]1CCOC1)N1CCC(/C=C/c2coc(CN3Cc4ccc(OC5CC5)cc4C3)cc2=O)CC1 [Compound 48] | 72.4 | 78.5 | 
O=C(N[C@H]1CC[C@H](COc2coc(CN3Cc4ccc(C(F)(F)F)cc4C3)cc2=O)CC1)C1COC1 [Compound 63] |  |  | inhibition at 0.1 µM [1, 5]: 64%; inhibition at 1 µM [1, 6]: 75%; AUC(0-t) [2, 7]: 19100 ng·h/mL; half-life [2, 7]: 2.18 h
Cn1ncc(C(=O)N[C@H]2CC[C@H](/C=C/c3coc(CN4Cc5ccc(C(F)(F)F)cc5C4)cc3=O)CC2)c1F [Compound 106] | 69 | 93 | 
O=C(OC1CC1)N1CC(/C=C/c2coc(CN3Cc4ccc(C(F)(F)F)cc4C3)cc2=O)C1 [Compound 53] | 61 | 67.3 | 
O=C(N[C@H]1CC[C@@H](COc2coc(CN3Cc4ccc(C(F)(F)F)cc4C3)cc2=O)CC1)C1CC1(F)F (stereo partly shown) [Compound 55] | 63 | 72.7 | 
CS(=O)(=O)N1CC(OC(=O)N2CC3C(COc4coc(CN5Cc6ccc(C(F)(F)F)cc6C5)cc4=O)C3C2)C1 (stereo not shown) [Compound 77] | 71 | 84 | 
O=C(CC1CC1)N1CCC(/C=C/c2coc(CN3Cc4ccc(C5CC5)cc4C3)cc2=O)CC1 [Compound 16] | 55 | 79.6 | IC50 [1]: 98.3 nM
O=C(N[C@H]1CC[C@H](COc2coc(CN3Cc4ccc(OC5CC5)cc4C3)cc2=O)CC1)C1CC1 [Compound 34] |  |  | IC50 [1]: 122 nM
CS(=O)(=O)N1CC(OC(=O)N2CCC(COc3coc(CN4Cc5ccc(S(F)(F)(F)(F)F)cc5C4)cc3=O)CC2)C1 [Compound 19] | 64.8 | 78.3 | 
O=c1cc(CN2Cc3ccc(C(F)(F)F)cc3C2)occ1/C=C/[C@H]1CC[C@H](NS(=O)(=O)CC2CC2)CC1 [Compound 62] | 67 | 79 | 
O=C(OC1CC1)N1CCC(COc2coc(CN3Cc4ccc(C(F)(F)F)cc4C3)cc2=O)CC1 [Compound 32] | 76.1 | 64.3 | IC50 [1]: 117 nM

SMILES | inhibition at 0.1 µM [1, 3] [%] | inhibition at 1 µM [1, 4] [%] | further results
CS(=O)(=O)N1CC(OC(=O)N2CCC(/C=C/c3coc(CN4Cc5ccc(C(F)(F)F)cc5C4)cc3=O)CC2)C1 [Compound 26] | 61 | 78 | 
O=C(N[C@H]1CC[C@H](CCc2coc(CN3Cc4ccc(C(F)(F)F)cc4C3)cc2=O)CC1)[C@@H]1CC1(F)F [Compound 112] | 74 | 78 | 
O=C(OC1CC1)N1CCC(COc2coc(CN3Cc4ccc(OC5CCC5)cc4C3)cc2=O)CC1 [Compound 49] | 67.3 | 75.2 | 
O=c1cc(CN2Cc3ccc(C(F)(F)F)cc3C2)occ1OC[C@H]1CC[C@H](NS(=O)(=O)c2ccsc2)CC1 [Compound 68] | 81 | 86 | 
C#Cc1ccc2c(c1)CN(Cc1cc(=O)c(OCC3CCN(C(=O)OC4COC4)CC3)co1)C2 [Compound 6] | 79.5 | 90.8 | 
CS(=O)(=O)N1CCC2(CC1)CC2C(=O)N1CCC(COc2coc(CN3Cc4ccc(C(F)(F)F)cc4C3)cc2=O)CC1 (single isomer, unassigned) [Compound 69] | 62 | 76 | 
O=c1cc(CN2Cc3ccc(C(F)(F)F)cc3C2)occ1OC[C@H]1CC[C@@H](NS(=O)(=O)CC2CC2)CC1 [Compound 10] | 63 | 79.7 | 
CS(=O)(=O)N1CC(OC(=O)N2CCC(COc3coc(CN4Cc5ccc(OC6CC6)cc5C4)cc3=O)CC2)C1 [Compound 25] | 56 | 77 | 
O=C(N[C@H]1CC[C@H](C(=O)Nc2coc(CN3Cc4ccc(C(F)(F)F)cc4C3)cc2=O)CC1)C1CC1 [Compound 119] | 60 | 81 | 
O=C(CC(F)(F)F)N[C@H]1CC[C@H](/C=C/c2coc(CN3Cc4ccc(C(F)(F)F)cc4C3)cc2=O)CC1 [Compound 102] | 79 | 82 | 
CC1(NC2CCC(/C=C/c3coc(CN4Cc5ccc(C(F)(F)F)cc5C4)cc3=O)CC2)COC1 (single isomer, unassigned) [Compound 122] | 63 | 82 | 
C#CCCS(=O)(=O)N1CCC(COc2coc(CN3Cc4ccc(C(F)(F)F)cc4C3)cc2=O)CC1 [Compound 12] | 85.6 | 83.4 | 
O=C(OC1CC1)N1CCC(/C=C/c2coc(CN3Cc4ccc(C(F)(F)F)cc4C3)cc2=O)CC1 [Compound 31] |  |  | AUC(0-t) [2, 7]: 13400 ng·h/mL; half-life [2, 7]: 5.65 h; AUC(0-t) [2, 8]: 4270 ng·h/mL; clearance [2, 8]: 9.48 mL/min/kg; half-life [2, 8]: 5.16 h; Vd [2, 8]: 3.41 L/kg
Cc1nc(C(=O)N[C@H]2CC[C@H](COc3coc(CN4Cc5ccc(OC6CC6)cc5C4)cc3=O)CC2)cs1 [Compound 47] | 72.2 | 69.3 | 
O=C(N[C@H]1CC[C@H](COc2coc(CN3Cc4ccc(C(F)(F)F)cc4C3)cc2=O)CC1)[C@H]1CC1(F)F [Compound 65] | 80 | 78 | 
CC(OC(=O)N1CCC(COc2coc(CN3Cc4ccc(C(F)(F)F)cc4C3)cc2=O)CC1)C(F)(F)F (single isomer, unassigned) [Compound 56] | 53.6 | 79.3 | 
O=C(C1CC(F)(F)C1)N1CCC(COc2coc(CN3Cc4ccc(C(F)(F)F)cc4C3)cc2=O)CC1 [Compound 73] | 83 | 87 | 
O=C(N[C@H]1CC[C@H](COc2coc(CN3Cc4ccc(C(F)(F)F)cc4C3)cc2=O)CC1)[C@@H]1CC1(F)F [Compound 66] | 78 | 82 | 
